From US3937820A, “Insulin composition providing alternatives to immunological resistance” (Hoechst Aktiengesellschaft, priority 1972, dated 1976)

Assay: activity of the starting insulins in I.U./mg
Settings: starting insulin; crystallized insulin calculated on dry substance

| Substance | activity |
| --- | --- |
| des-phenyl-alanine^B1 insulin [des-Phe^B1 insulin] | 25 I.U./mg |
| crystallized insulin: pure crystallized complete insulin used as starting material | ≥ 25 I.U./mg |
